Source: ChEMBL document CHEMBL5712921, “Unlocking the Recovery Potential: JMJD3 Inhibition-Mediated SAPK/JNK Signaling Inactivation Supports Endogenous Oligodendrocyte-Lineage Commitment Post Mammalian Spinal Cord Injury” (Neurochem Res, 2021)
The source made the active and inactive calls.

Assays:
[1] = target: Lysine-specific demethylase 6B (Mus musculus) (UniProt Q5NCY0); assay: […] of JMJD3 in mouse C17.2 cells at 10 uM for 3 hrs; format: cell-based
[2] = target: Lysine-specific demethylase 6B (Mus musculus) (UniProt Q5NCY0); assay: Inhibition of JMJD3 in mouse C17.2 cells at 20 uM for 3 hrs; format: cell-based
[3] = target: Lysine-specific demethylase 6B (Mus musculus) (UniProt Q5NCY0); assay: Inhibition of JMJD3 in mouse Neural Progenitor cell assessed as Olig2 expression at 10 uM by immunoblot analysis; format: cell-based
Mus musculus [4] = assay: In vivo inhibition of JMJD3 in SCI mouse model assessed as upregulation of H3K27me3 expression administered at 100 mg/kg, ip for 5 days followed by subcutaneous administration for 7 days by immunoblot analysis; format: functional, organism-based; details: time 12.0 day
[5] = target: Lysine-specific demethylase 6B (Mus musculus) (UniProt Q5NCY0); assay: Inhibition of JMJD3 in mouse C17.2 cell assessed as increased number of olig2 positive cell at 10 uM by Hoechst staining analysis; format: cell-based
[6] = target: Lysine-specific demethylase 6B (Mus musculus) (UniProt Q5NCY0); assay: Inhibition of JMJD3 in mouse Neural Progenitor cell assessed as enhanced Olig2 expression at 10 uM by immunofluorescent staining; format: cell-based
Mus musculus [7] = assay: Remyelination activity of SCI mouse model assessed as olig2 positive tube like structure administered at 100 mg/kg, ip for 5 days followed by subcutaneous administration for 7 days by immunohistochemical analysis; details: time 12.0 day
Mus musculus [8] = assay: In vivo inhibition of JMJD3 in SCI mouse model assessed as upregulation of Olig2 expression administered at 100 mg/kg, ip for 5 days followed by subcutaneous administration for 7 days by immunoblot analysis; format: functional, organism-based; details: time 12.0 day
Mus musculus [9] = organism: Mus musculus; assay: […] of phosphorylated c-Jun at ser63 residue in SCI mouse model; format: functional, organism-based
[10] = target: Lysine-specific demethylase 6B (Mus musculus) (UniProt Q5NCY0); assay: Inhibition of JMJD3 in mouse C17.2 cell assessed as Olig2 expression at 10 uM by immunoblot analysis; format: cell-based
[11] = target: Lysine-specific demethylase 6B (Mus musculus) (UniProt Q5NCY0); assay: Inhibition of JMJD3 in mouse C17.2 cell assessed as decreased number of GFAP positive cell at 10 uM by Hoechst staining analysis; format: cell-based

Lysine-specific demethylase 6B (Mus musculus), sequence (Q5NCY0 whole entry): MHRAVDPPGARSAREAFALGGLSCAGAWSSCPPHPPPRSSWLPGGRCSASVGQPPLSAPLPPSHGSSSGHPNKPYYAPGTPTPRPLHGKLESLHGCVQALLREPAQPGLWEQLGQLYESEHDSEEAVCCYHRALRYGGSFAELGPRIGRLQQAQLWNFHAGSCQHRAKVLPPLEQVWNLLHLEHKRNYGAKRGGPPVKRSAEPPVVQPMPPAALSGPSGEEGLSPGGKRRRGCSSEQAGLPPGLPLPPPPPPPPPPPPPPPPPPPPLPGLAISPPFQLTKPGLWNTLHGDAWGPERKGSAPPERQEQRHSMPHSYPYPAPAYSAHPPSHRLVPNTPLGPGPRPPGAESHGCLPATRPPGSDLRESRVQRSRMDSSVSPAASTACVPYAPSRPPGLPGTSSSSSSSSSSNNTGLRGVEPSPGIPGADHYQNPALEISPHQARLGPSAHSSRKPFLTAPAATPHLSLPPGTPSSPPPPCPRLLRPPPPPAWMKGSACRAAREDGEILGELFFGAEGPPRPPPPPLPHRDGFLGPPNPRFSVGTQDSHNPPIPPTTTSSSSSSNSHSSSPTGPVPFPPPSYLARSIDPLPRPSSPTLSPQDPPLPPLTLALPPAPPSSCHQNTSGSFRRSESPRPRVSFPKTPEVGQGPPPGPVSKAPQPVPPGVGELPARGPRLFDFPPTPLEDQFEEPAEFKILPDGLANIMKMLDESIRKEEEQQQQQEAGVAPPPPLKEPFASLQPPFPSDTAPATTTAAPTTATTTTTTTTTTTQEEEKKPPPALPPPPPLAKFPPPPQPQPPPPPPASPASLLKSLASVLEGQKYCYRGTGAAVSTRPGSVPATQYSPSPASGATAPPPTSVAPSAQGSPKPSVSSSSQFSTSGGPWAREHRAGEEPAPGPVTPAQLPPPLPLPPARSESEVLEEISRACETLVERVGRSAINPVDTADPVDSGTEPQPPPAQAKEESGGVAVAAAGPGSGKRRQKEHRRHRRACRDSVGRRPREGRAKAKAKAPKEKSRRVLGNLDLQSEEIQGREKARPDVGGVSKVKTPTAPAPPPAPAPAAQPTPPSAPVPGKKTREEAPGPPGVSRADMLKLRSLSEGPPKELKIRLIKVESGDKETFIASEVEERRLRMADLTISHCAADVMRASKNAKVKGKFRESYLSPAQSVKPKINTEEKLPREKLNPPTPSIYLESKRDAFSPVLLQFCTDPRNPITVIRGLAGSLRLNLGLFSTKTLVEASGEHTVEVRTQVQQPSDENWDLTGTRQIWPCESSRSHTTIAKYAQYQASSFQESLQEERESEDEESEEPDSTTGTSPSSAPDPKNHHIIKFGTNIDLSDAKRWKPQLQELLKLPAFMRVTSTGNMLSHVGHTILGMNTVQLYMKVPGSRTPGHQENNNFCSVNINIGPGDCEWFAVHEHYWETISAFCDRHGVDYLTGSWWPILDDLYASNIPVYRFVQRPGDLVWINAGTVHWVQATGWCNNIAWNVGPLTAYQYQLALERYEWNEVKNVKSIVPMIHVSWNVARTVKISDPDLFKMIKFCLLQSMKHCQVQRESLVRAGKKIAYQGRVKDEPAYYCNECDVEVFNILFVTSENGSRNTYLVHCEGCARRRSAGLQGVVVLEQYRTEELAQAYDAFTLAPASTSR

CC[C@]1(O)C[C@@H]2CN(CCc3c([nH]c4ccccc34)[C@@](C(=O)OC)(c3cc4c(cc3OC)N(C)[C@H]3[C@@](O)(C(=O)OC)[C@H](OC(C)=O)[C@]5(CC)C=CCN6CC[C@]43[C@@H]65)C2)C1
active: Activity [1]

O=C1c2ccccc2-c2n[nH]c3cccc1c23
active: inhibition [2]

CCOC(=O)CCNc1cc(N2CCc3ccccc3CC2)nc(-c2ccccn2)n1
active: inhibition [3] | inhibition (Mus musculus [4]) | inhibition [5] | inhibition [6] | Activity (Mus musculus [7]) | inhibition (Mus musculus [8]) | Activity (Mus musculus [9]) | inhibition [10] | inhibition [11]
